# Read-outs that look alike come from different tables or passages of the source.
# What was measured:
# [1] = test system: A/Parma/24/09 H1N1 (Brisbane-like) oseltamivir-resistant virus; conditions: Table 1; turkey erythrocytes; cited from earlier work
# [2] = test system: A/Parma/24/09 H1N1 (Brisbane-like) oseltamivir-resistant virus; conditions: MDCK cells, c.p.e. by neutral red, 48 h; cited from earlier work
# [3] = test system: A/Parma/24/09 H1N1 (Brisbane-like) oseltamivir-resistant virus; assay: microbe, parasite or virus in culture; type: cell-based, Influenza A virus; conditions: for EC50: Influenza A virus, H1N1, MDCK, 48 h, read-out: EC50 A/Parma H1N1
# [4] = test system: A/Parma/24/09 H1N1 (Brisbane-like) oseltamivir-resistant virus; type: biochemical, Influenza A virus; conditions: Table 2; turkey erythrocytes; dash = not active
SMILES,HI Titer A/Parma H1N1 [4] [pM],also measured
Cc1ccc(S(=O)(=O)NC(C)c2ccc(-n3ccnc3)cc2)cc1C (stereo not shown) [Compound 1],,HI Titer A/Parma H1N1 [1]: 0.48 µM; EC50 [2]: 125 nM
Fc1ccc(CNc2ncnc3[nH]cnc23)cc1 [Compound 2],,HI Titer A/Parma H1N1 [1]: 0.48 µM
COc1ccc(C(=O)Nc2cccc(S(=O)(=O)NCc3ccco3)c2)cc1 [Compound 3],,HI Titer A/Parma H1N1 [1]: 0.48 µM
Cc1ccc(F)cc1NC(=O)COC(=O)c1ccc2ccccc2n1 [Compound 4],,HI Titer A/Parma H1N1 [1]: 0.48 µM; EC50 [2]: 125 nM
Cc1ccc2nc(CNc3ccc(C)c(Cl)c3)cc(=O)n2c1 [Compound 5],,HI Titer A/Parma H1N1 [1]: 0.48 µM
O=C(CC1(O)C(=O)Nc2ccccc21)c1ccccn1 (stereo not shown) [Compound 6],0.012,"SI (selectivity index) = CC50/EC50, A/Parma H1N1 [3]: 0.34 × 10^2; EC50 [3]: 900 nM"
N#Cc1ccc(NC(=O)COC(=O)c2ccccn2)cc1 [Compound 7],0.012,"SI (selectivity index) = CC50/EC50, A/Parma H1N1 [3]: 0.34 × 10^2; EC50 [3]: 900 nM"
O=C(OCC(=O)N1CCc2ccccc21)c1ccccn1 [Compound 8],0.012,
CN(C(=O)COC(=O)c1ccc2ccccc2n1)c1ccccc1 [Compound 9],0.012,
CCc1ccc(NC(=O)C(C)OC(=O)c2ccc3ccccc3n2)cc1 (stereo not shown) [Compound 10],0.012,
O=C(COC(=O)c1ccc2ccccc2n1)Nc1ccc2c(c1)OCCO2 [Compound 11],0.012,
O=C(COC(=O)c1ccc2ccccc2n1)Nc1ccccc1-c1ccccc1 [Compound 12],0.012,
Cc1ccc(NC(=O)COC(=O)c2ccccn2)cc1F [Compound 13],0.012,"SI (selectivity index) = CC50/EC50, A/Parma H1N1 [3]: 0.44 × 10^2; EC50 [3]: 700 nM"
O=C(OCC(=O)N(c1ccccc1)C1CCCCC1)c1ccc2ccccc2n1 [Compound 14],0.012,
CC(=O)Nc1ccc(S(=O)(=O)NC(C)c2ccc(-n3ccnc3)cc2)cc1 (stereo not shown) [Compound 16],0.012,
CC(NS(=O)(=O)c1ccccc1)c1ccc(-c2ccccc2)cc1 (stereo not shown) [Compound 17],0.012,
Nc1cc(F)ccc1C(=O)OCC(=O)Nc1ccccc1 [Compound 18],0.012,
COc1ccc(NC(=O)COC(=O)c2ccc3c(c2)CCC(=O)N3)cc1 [Compound 19],0.012,
O=C(COC(=O)c1ccccn1)Nc1ccc(-c2ccccc2)cc1 [Compound 20],0.012,
O=C1CCCN1c1ccc(CNS(=O)(=O)c2ccc(F)cc2)cc1 [Compound 23],0.012,
O=C(COC(=O)c1ccccn1)Nc1ccc2c(c1)CCC2 [Compound 24],0.047,
COc1ccc(S(=O)(=O)NCc2ccc(-n3ccnc3)cc2)cc1F [Compound 25],0.012,"SI (selectivity index) = CC50/EC50, A/Parma H1N1 [3]: 0.44 × 10^2; EC50 [3]: 700 nM"
Cc1nc(-c2cccc(NC(=O)COC(=O)c3ccc4ccccc4n3)c2)cs1 [Compound 26],0.047,
Cc1ccc(S(=O)(=O)Nc2ccc(-n3ccnc3)c(Cl)c2)cc1 [Compound 28],0.047,

# Reference: article PMC8952214 (Pharmaceuticals, 2022)
